Data on 50 molecules can be found in patent US9181273B2, “Morpholine-spirocyclic piperidine amides as modulators of ion channels” (Vertex Pharmaceuticals Incorporated, priority 2011, dated 2015).

Each structure is given as a SMILES string.

In general, IC50 refers to the concentration at which inhibition is half-maximal.

The first experiment deals with human NaV subtype, like NaV 1.7 (Homo sapiens, UniProt Q15858). Description: E-VIPR optical membrane potential assay with electrical stimulation. It is filed as cell-based.
Sequence of human NaV subtype, like NaV 1.7 (Q15858 whole entry): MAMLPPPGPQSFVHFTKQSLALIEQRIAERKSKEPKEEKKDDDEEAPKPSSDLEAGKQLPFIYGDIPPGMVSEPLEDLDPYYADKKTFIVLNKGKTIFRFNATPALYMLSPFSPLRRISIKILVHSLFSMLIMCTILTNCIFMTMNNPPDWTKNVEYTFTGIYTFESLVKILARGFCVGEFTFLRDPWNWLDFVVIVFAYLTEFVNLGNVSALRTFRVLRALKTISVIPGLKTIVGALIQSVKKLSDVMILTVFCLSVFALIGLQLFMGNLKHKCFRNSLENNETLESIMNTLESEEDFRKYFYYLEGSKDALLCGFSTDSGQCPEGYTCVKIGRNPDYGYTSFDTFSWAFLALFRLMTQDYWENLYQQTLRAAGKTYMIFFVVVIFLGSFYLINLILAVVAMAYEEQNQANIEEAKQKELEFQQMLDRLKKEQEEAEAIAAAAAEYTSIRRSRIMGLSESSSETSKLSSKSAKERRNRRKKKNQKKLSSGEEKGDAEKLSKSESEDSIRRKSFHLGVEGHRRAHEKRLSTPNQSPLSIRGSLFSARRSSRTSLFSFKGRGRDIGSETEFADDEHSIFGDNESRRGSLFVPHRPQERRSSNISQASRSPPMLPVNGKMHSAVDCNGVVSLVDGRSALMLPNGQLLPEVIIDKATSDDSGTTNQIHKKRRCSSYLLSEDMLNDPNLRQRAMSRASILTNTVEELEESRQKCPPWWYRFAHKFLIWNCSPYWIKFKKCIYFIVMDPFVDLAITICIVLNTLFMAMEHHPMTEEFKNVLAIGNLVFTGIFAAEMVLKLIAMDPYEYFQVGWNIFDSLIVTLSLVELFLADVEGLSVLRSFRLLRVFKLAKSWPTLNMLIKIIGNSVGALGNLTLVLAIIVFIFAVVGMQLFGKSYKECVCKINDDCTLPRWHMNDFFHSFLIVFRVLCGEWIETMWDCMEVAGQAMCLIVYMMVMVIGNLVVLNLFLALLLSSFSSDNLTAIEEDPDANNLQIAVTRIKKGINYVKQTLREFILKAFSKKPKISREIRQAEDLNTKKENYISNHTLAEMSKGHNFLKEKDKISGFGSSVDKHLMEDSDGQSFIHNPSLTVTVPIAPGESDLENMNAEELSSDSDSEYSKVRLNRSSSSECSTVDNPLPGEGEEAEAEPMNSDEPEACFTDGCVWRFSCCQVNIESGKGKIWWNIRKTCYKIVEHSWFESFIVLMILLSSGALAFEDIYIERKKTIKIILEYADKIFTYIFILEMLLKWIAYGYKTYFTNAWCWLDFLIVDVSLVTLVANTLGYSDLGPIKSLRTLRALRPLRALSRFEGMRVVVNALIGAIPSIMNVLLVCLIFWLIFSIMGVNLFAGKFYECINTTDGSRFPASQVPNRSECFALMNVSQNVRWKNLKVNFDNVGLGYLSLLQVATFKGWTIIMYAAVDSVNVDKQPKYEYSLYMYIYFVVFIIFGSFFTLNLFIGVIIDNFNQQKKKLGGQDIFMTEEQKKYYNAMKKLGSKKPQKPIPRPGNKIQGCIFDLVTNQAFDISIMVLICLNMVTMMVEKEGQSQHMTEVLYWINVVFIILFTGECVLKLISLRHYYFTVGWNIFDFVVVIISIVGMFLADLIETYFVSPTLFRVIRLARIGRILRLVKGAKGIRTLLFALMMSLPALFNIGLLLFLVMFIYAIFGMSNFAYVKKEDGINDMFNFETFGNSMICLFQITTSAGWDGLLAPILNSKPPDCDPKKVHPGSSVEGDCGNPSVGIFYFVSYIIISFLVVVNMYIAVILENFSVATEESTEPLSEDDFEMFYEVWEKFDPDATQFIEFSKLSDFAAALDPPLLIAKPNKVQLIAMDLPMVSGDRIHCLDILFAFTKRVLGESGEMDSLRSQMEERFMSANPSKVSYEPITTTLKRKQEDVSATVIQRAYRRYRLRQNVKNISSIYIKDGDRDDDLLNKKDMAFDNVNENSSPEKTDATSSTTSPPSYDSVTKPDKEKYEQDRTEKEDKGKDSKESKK
Conditions: not given
An excerpt:
Sodium channels are voltage-dependent proteins that can be activated by inducing membrane voltage changes by applying electric fields. […] The instrument comprises a microtiter plate handler, an optical system for exciting the coumarin dye while simultaneously recording the coumarin and oxonol emissions, a waveform generator, a current- or voltage-controlled amplifier, and a device for inserting electrodes in well. Under integrated computer control, this instrument passes user-programmed electrical stimulus protocols to cells within the wells of the microtiter plate.
24 hours before the assay on E-VIPR, HEK cells expressing human NaV subtype, like NaV 1.7, are seeded in 384-well poly-lysine coated plates at 15,000-20,000 cells per well. Other subtypes are performed in an analogous mode in a cell line expressing the NaV of interest. […] Cells are grown in vented cap flasks, in 90% humidity and 10% CO2, to 100% confluence. They are usually split by trypsinization 1:10 or 1:20, depending on scheduling needs, and grown for 2-3 days before the next split.
To make the solution Add volume of 10% Pluronic F127 stock equal to volumes of CC2-DMPE+DiSBAC6(3). The order of preparation is first mix Pluronic and CC2-DMPE, then add DiSBAC6(3) while vortexing, then add Bath1+β-Cyclodextrin.
1) Pre-spot compounds (in neat DMSO) into compound plates. […] Final compound plate volume will be 80 μL (80-fold intermediate dilution from 1 μL DMSO spot; 160-fold final dilution after transfer to cell plate).
2) Prepare Hexyl Dye Solution.
3) Prepare cell plates. On the day of the assay, medium is aspirated and cells are washed three times with 100 μL of Bath1 Solution, maintaining 25 μL residual volume in each well.
4) Dispense 25 μL per well of Hexyl Dye Solution into cell plates. Incubate for 20-35 minutes at room temp or ambient conditions.
5) Dispense 80 μL per well of Bath1 into compound plates. Acid Yellow-17 (1 mM) is added and Potassium Chloride can be altered from 4.5 to 20 mM depending on the NaV subtype and assay sensitivity.
6) Wash cell plates three times with 100 μL per well of Bath1, leaving 25 μL of residual volume. Then transfer 25 uL per well from Compound Plates to Cell Plates. Incubate for 20-35 minutes at room temp/ambient condition
7) Read Plate on E-VIPR. Use the current-controlled amplifier to deliver stimulation wave pulses for typically 9 seconds and a scan rate of 400 Hz. A pre-stimulus recording is performed for 0.5 seconds to obtain the un-stimulated intensities baseline. The stimulatory waveform is applied for 9 seconds followed by 0.5 seconds of post-stimulation recording to examine the relaxation to the resting state. The stimulatory waveform of the electrical stimulation is specific for each cell type and can vary the magnitude, duration and frequency of the applied current to provide an optimal assay signal.
Data are analyzed and reported as normalized ratios of background-subtracted emission intensities measured in the 460 nm and 580 nm channels. Background intensities are then subtracted from each assay channel. Background intensities are obtained by measuring the emission intensities during the same time periods from identically treated assay wells in which there are no cells. The response as a function of time is then reported as the ratios obtained using the following formula: […]
The data is further reduced by calculating the initial (Ri) and final (Rf) ratios. These are the average ratio values during part or all of the pre-stimulation period, and during sample points during the stimulation period. The response to the stimulus R=Rf/Ri is then calculated and reported as a function of time.
Control responses are obtained by performing assays in the presence of a compound with the desired properties (positive control), such as tetracaine, and in the absence of pharmacological agents (negative control). Responses to the negative (N) and positive (P) controls are calculated as above. The compound antagonist activity A is defined as: […]
Regarding `COCC1CN(c2ncccn2)CC2(CCN(C(=O)c3ccc(C(C)(C)C)c(OC)c3)CC2)O1` (centres unmarked) [Compound 191], the IC50 is < 2 µM.

The same experiment, now with this note: active against one or more sodium channels; assay and NaV subtype not specified for Table 3; read-out: IC50 Binned Activity Data.
For `CCCOCCN1CC(COC)OC2(CCN(C(=O)c3ccc(OC(C)C)c(C)c3)CC2)C1` (centres unmarked) [Compound 107], the IC50 was < 2 µM.
Still for that read-out and setting: the same measure for `Cc1cc(C(=O)N2CCC3(CC2)CN(CC(F)F)CC(c2ncc(C(C)(C)C)o2)O3)ccc1OC(C)C` (centres unmarked) [Compound 230]: < 2 µM; for `COCC1CN(c2ncccn2)CC2(CCN(C(=O)c3ccc(S(=O)(=O)NC4CC4)cc3)CC2)O1` (centres unmarked) [Compound 198]: > 5 µM.
On the same count and under the same terms, the figure for `CC(C)Oc1ccc(C(=O)N2CCC3(CC2)CN(CC(F)(F)F)CC(c2ccccc2)O3)c(F)c1` (centres unmarked) [Compound 135] is < 2 µM.
The same measure, in the same setting: the figure for `COCC1CN(c2cccc(OC)c2)CC2(CCN(C(=O)c3ccc(OC(C)C)c(C)c3)CC2)O1` (centres unmarked) [Compound 74] is < 2 µM; for `Cc1cc(C(=O)N2CCC3(CC2)CN(CC(F)F)CC(c2ccccc2)O3)ccc1OC(C)C` (centres unmarked) [Compound 153] it is < 2 µM.
`COCCOc1ccc(C(=O)N2CCC3(CC2)CN(c2ncccn2)CC(COC)O3)cc1OC` (centres unmarked) [Compound 125]: the IC50 was > 5 µM.
Same read-out and setting: the figure for `Cc1cc(C(=O)N2CCC3(CC2)CN(CC(F)(F)F)CC(c2ccccc2)O3)ccc1OCCO` (centres unmarked) [Compound 199] is 2 to 5 µM; for `COc1cc(C(=O)N2CCC3(CC2)CN(CC(F)(F)F)CC(c2ccccc2)O3)cc(F)c1OC(C)C` (centres unmarked) [Compound 234] it is < 2 µM; for `COCC1CN(c2ncccn2)CC2(CCN(C(=O)c3ccc(OC(C)C)c(C#N)c3)CC2)O1` (centres unmarked) [Compound 303] it is < 2 µM.
With `CCC(CC)N1CC(COC)OC2(CCN(C(=O)c3ccc(OC(C)C)c(C)c3)CC2)C1` (centres unmarked) [Compound 48], the IC50 was < 2 µM.
The same measure, in the same setting: the figure for `CC#CCN1CC(CC)OC2(CCN(C(=O)c3ccc(OC(C)C)c(F)c3)CC2)C1` (centres unmarked) [Compound 239] is > 5 µM.
As for `CC(C)Oc1ccc(C(=O)N2CCC3(CC2)CN(CC(F)(F)F)CC(c2ccccc2)O3)nc1` (centres unmarked) [Compound 177], the IC50 was < 2 µM.
Take `CCOc1cccc(C(=O)N2CCC3(CC2)CN(c2ncccn2)CC(COC)O3)c1` (centres unmarked) [Compound 72]: the IC50 was > 5 µM.
On the same count and under the same terms, the figure for `CCC1CN(CC(F)(F)F)CC2(CCN(C(=O)c3ccc(OC(C)C)c(C)c3)CC2)O1` (centres unmarked) [Compound 233] is < 2 µM; for `COCC1CN(C(C)C)CC2(CCN(C(=O)c3ccc(OC(C)C)c(C)c3)CC2)O1` (centres unmarked) [Compound 73] it is < 2 µM.
Still for that read-out and setting: the same measure for `O=C(c1cc(Cl)cc(Cl)c1)N1CCC2(CC1)CN(CC(F)(F)F)CC(c1ccccc1)O2` (centres unmarked) [Compound 118]: > 5 µM; for `COCC1CN(c2ccnc(C)c2)CC2(CCN(C(=O)c3ccc(OC(C)C)c(C)c3)CC2)O1` (centres unmarked) [Compound 95]: > 5 µM; for `COCC1CN(Cc2ccccc2F)CC2(CCN(C(=O)c3ccc(OC(C)C)c(C)c3)CC2)O1` (centres unmarked) [Compound 102]: < 2 µM.
Still for that read-out and setting: the figure for `Cc1cc(C(=O)N2CCC3(CC2)CN(C(C)C)CC(c2ccccc2)O3)ccc1OC(C)C` (centres unmarked) [Compound 281] is < 2 µM; for `Cc1cc(C(=O)N2CCC3(CC2)CN(CC(F)(F)F)CC(Cn2cccn2)O3)ccc1OC(C)C` (centres unmarked) [Compound 181] it is > 5 µM.
Take `Cc1cc(C(=O)N2CCC3(CC2)CN(CC(C)C)CC(c2ccccc2)O3)ccc1OC(C)C` (centres unmarked) [Compound 29]: the IC50 is < 2 µM.
The same measure, in the same setting: the figure for `CCC1CN(c2ccccn2)CC2(CCN(C(=O)c3ccc(C4(O)CCCCC4)cc3)CC2)O1` (centres unmarked) [Compound 54] is < 2 µM; for `Cc1ccc(C2CN(CC(F)F)CC3(CCN(C(=O)c4ccc(OC(C)C)c(C)c4)CC3)O2)cc1` (centres unmarked) [Compound 63] it is 2 to 5 µM.
Still for that read-out and setting: the figure for `Cc1cc(C(=O)N2CCC3(CC2)CN(CC(F)F)CC(c2nccn2C)O3)ccc1OC(C)C` (centres unmarked) [Compound 35] is > 5 µM; for `CC(C)Oc1ccc(C(=O)N2CCC3(CC2)CN(CC(F)F)CC(c2ccccc2F)O3)cc1F` (centres unmarked) [Compound 45] it is < 2 µM; for `CCOCC1CN(CC)CC2(CCN(C(=O)c3ccc(OC(C)C)c(C)c3)CC2)O1` (centres unmarked) [Compound 272] it is > 5 µM.
Still for that read-out and setting: the figure for `CCC1CN(c2ncccn2)CC2(CCN(C(=O)c3ccc(C4=CCCC4)c(F)c3)CC2)O1` (centres unmarked) [Compound 130] is > 5 µM; for `Cc1cc(C(=O)N2CCC3(CC2)CN(C)CC(c2ccccc2)O3)ccc1OC(C)C` (centres unmarked) [Compound 7] it is < 2 µM.
In the case of `O=C(c1ccc(C(F)(F)F)cn1)N1CCC2(CC1)CN(CC(F)F)CC(c1ccccc1)O2` (centres unmarked) [Compound 290], the IC50 was > 5 µM.
As for `COCC1CN(C2CCCCCC2)CC2(CCN(C(=O)c3ccc(OC(C)C)c(C)c3)CC2)O1` (centres unmarked) [Compound 201], the IC50 is < 2 µM.
Regarding `COCC1CN(C2CCCCC2)CC2(CCN(C(=O)c3ccc(OC(C)C)c(C)c3)CC2)O1` (centres unmarked) [Compound 204], the IC50 is < 2 µM.
The same measure, in the same setting: the same measure for `COCC1CN(c2ncccn2)CC2(CCN(C(=O)c3ccc(C4(O)CCCC4)cc3)CC2)O1` (centres unmarked) [Compound 300]: < 2 µM.
For `CC#CCN1CC(CC)OC2(CCN(C(=O)c3ccc(OC(C)C)c(C#N)c3)CC2)C1` (centres unmarked) [Compound 231], the IC50 is > 5 µM.
Still for that read-out and setting: the same measure for `COCC1CN(c2ccc(OC)cc2)CC2(CCN(C(=O)c3ccc(OC(C)C)c(C)c3)CC2)O1` (centres unmarked) [Compound 183]: < 2 µM.
The same measure, in the same setting: the same measure for `Cc1cc(C(=O)N2CCC3(CC2)CN(CC(F)F)CC(c2cc[nH]n2)O3)ccc1OC(C)C` (centres unmarked) [Compound 21]: < 2 µM; for `CC(C)Oc1ccc(C(=O)N2CCC3(CC2)CN(CC(F)F)CC(c2ccccc2)O3)cc1F` (centres unmarked) [Compound 77]: < 2 µM.
As for `COCC1CN(c2ncccn2)CC2(CCN(C(=O)c3ccc(OC(C)C)c(F)c3)CC2)O1` (centres unmarked) [Compound 19], the IC50 is < 2 µM.
For the molecule `COCC1CN(CC(F)(F)F)CC2(CCN(C(=O)c3ccc(OC(C)C)c(C)c3)CC2)O1` (centres unmarked) [Compound 260], the IC50 was < 2 µM.
On the same count and under the same terms, the same measure for `O=C(c1ccc(S(=O)(=O)NC2CC2)cc1)N1CCC2(CC1)CN(CC(F)F)CC(c1ccc(F)cc1)O2` (centres unmarked) [Compound 280]: 2 to 5 µM; for `CC(C)(O)c1ccc(C(=O)N2CCC3(CC2)CN(CC(F)F)CC(c2ccc(F)cc2)O3)cc1F` (centres unmarked) [Compound 307]: < 2 µM.
Same read-out and setting: the figure for `CC(C)Oc1ccc(C(=O)N2CCC3(CC2)CN(CC(F)F)CC(c2ncc(C(C)(C)C)o2)O3)cc1F` (centres unmarked) [Compound 137] is < 2 µM; for `COCC1CN(c2ccncc2)CC2(CCN(C(=O)c3ccc(OC(C)C)c(C)c3)CC2)O1` (centres unmarked) [Compound 31] it is > 5 µM.
The same measure, in the same setting: the same measure for `O=C(c1ccccc1OC(F)F)N1CCC2(CC1)CN(CC(F)(F)F)CC(c1ccccc1)O2` (centres unmarked) [Compound 90]: > 5 µM.
As to `Cc1nc(C(=O)N2CCC3(CC2)CN(CC(F)F)CC(c2ccccc2)O3)ccc1C#N` (centres unmarked) [Compound 157], the IC50 was > 5 µM.
Same read-out and setting: the same measure for `COc1cc(C(=O)N2CCC3(CC2)CN(CC(F)(F)F)CC(c2ncc(C)s2)O3)ccc1OC(C)C` (centres unmarked) [Compound 152]: < 2 µM.
On the same count and under the same terms, the same measure for `COCC1CN(C2CCCC2)CC2(CCN(C(=O)c3ccc(OC(C)C)c(C)c3)CC2)O1` (centres unmarked) [Compound 302]: < 2 µM; for `Cc1cc(C(=O)N2CCC3(CC2)CN(CC(F)(F)F)CC(c2ccccc2)O3)ccc1C(C)(C)O` (centres unmarked) [Compound 98]: < 2 µM; for `COCC1CN(CC(=O)C2CC2)CC2(CCN(C(=O)c3ccc(OC(C)C)c(C)c3)CC2)O1` (centres unmarked) [Compound 249]: 2 to 5 µM.
